Measured values taken from PubChem BioAssay (NCI).
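The compound was tested at five concentrations on cells cultured in 96-well plates, with a 48-hour exposure period. GI50 is the concentration that inhibits growth by half. Definition used: TGI = concentration required for complete inhibition of growth.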

Columns and labels:
Test in all cases: NCI tumour cell line growth inhibition, 48 h
[1] = test system: SF-539 CNS
[2] = test system: MOLT-4 leukemia
[3] = test system: ACHN renal
[4] = test system: A549 NSCLC
[5] = test system: PC-3 prostate
[6] = test system: SK-MEL-2 melanoma
[7] = test system: DU-145 prostate
[8] = test system: SK-MEL-5 melanoma
[9] = test system: HT29 colon
[10] = test system: BT-549 breast
[11] = test system: T-47D breast
[12] = test system: M14 melanoma
[13] = test system: HCC-2998 colon
[14] = test system: NCI-H460 lung
[15] = test system: OVCAR-4 ovarian
[16] = test system: SK-MEL-28 melanoma
[17] = test system: OVCAR-8 ovarian
[18] = test system: SF-295 CNS
[19] = test system: OVCAR-3 ovarian
[20] = test system: SF-268 CNS
[21] = test system: OVCAR-5 ovarian
[22] = test system: RPMI-8226 leukemia
[23] = test system: NCI-H226 lung
[24] = test system: HCT-15 colon
[25] = test system: U251 CNS
[26] = test system: TK-10 renal
[27] = test system: NCI/ADR-RES ovarian
[28] = test system: EKVX NSCLC
[29] = test system: IGROV1 ovarian
[30] = test system: SNB-75 CNS
[31] = test system: MCF7 breast
[32] = test system: UACC-257 melanoma
[33] = test system: KM12 colon
[34] = test system: RXF 393 renal
[35] = test system: HCT-116 colon
[36] = test system: CCRF-CEM leukemia
[37] = test system: MDA-MB-231 breast
[38] = test system: A498 renal
[39] = test system: UO-31 renal
[40] = test system: MALME-3M melanoma
[41] = test system: SN12C renal
[42] = test system: NCI-H23 lung
[43] = test system: K-562 leukemia
[44] = test system: SW-620 colon
[45] = test system: MDA-MB-435
[46] = test system: SK-OV-3 ovarian
[47] = test system: HOP-62 NSCLC
[48] = test system: 786-0 renal
[49] = test system: UACC-62 melanoma
[50] = test system: SR leukemia
[51] = test system: MDA-N
[52] = test system: HS 578T breast
[53] = test system: COLO 205 colon
[54] = test system: HL-60(TB) leukemia
[55] = test system: HOP-92 NSCLC

Question: For `CC(=O)OC(C)c1cc2c(s1)C(=O)c1c(C(C)OC(C)=O)csc1C2=O` (stereo not given), which TGI [1] is on record?
Answer: The TGI was 2360 nM.

Question: And the TGI [2]?
Answer: Its TGI is 5080 nM.

Question: What about the TGI [3] of the same compound?
Answer: Its TGI is 2820 nM.

Question: What about the TGI [4] of the same compound?
Answer: The TGI was 4520 nM.

Question: And the TGI [5]?
Answer: The TGI was 6600 nM.

Question: What about the GI50 [6] of the same compound?
Answer: Its GI50 is 1560 nM.

Question: What about the TGI [6] of the same compound?
Answer: Its TGI is 3560 nM.

Question: And the TGI [7]?
Answer: Its TGI is 1860 nM.

Question: What about the GI50 [8] of the same compound?
Answer: The GI50 was 631 nM.

Question: And the TGI [8]?
Answer: Its TGI is 1830 nM.

Question: What about the TGI [9] of the same compound?
Answer: The TGI was 4350 nM.

Question: And the GI50 [10]?
Answer: The GI50 was 2140 nM.

Question: And the TGI [10]?
Answer: The TGI was 3830 nM.

Question: What about the TGI [11] of the same compound?
Answer: The TGI was 5520 nM.

Question: And the GI50 [12]?
Answer: The GI50 was 516 nM.

Question: And the TGI [12]?
Answer: Its TGI is 1790 nM.

Question: What about the TGI [13] of the same compound?
Answer: The TGI was 3100 nM.

Question: What about the TGI [14] of the same compound?
Answer: The TGI was 1580 nM.

Question: And the TGI [15]?
Answer: The TGI was 2750 nM.

Question: What about the GI50 [16] of the same compound?
Answer: Its GI50 is 1650 nM.

Question: And the TGI [16]?
Answer: The TGI was 3270 nM.

Question: What about the GI50 [17] of the same compound?
Answer: The GI50 was 452 nM.

Question: And the TGI [17]?
Answer: The TGI was 2050 nM.

Question: What about the TGI [18] of the same compound?
Answer: The TGI was 2590 nM.

Question: What about the GI50 [19] of the same compound?
Answer: Its GI50 is 278 nM.

Question: And the TGI [19]?
Answer: The TGI was 724 nM.

Question: And the TGI [20]?
Answer: The TGI was 13200 nM.

Question: And the TGI [21]?
Answer: Its TGI is 3410 nM.

Question: And the TGI [22]?
Answer: The TGI was 4980 nM.

Question: What about the TGI [23] of the same compound?
Answer: Its TGI is 3620 nM.

Question: What about the TGI [24] of the same compound?
Answer: The TGI was 4400 nM.

Question: And the TGI [25]?
Answer: Its TGI is 2700 nM.

Question: What about the TGI [26] of the same compound?
Answer: Its TGI is 5690 nM.

Question: What about the TGI [27] of the same compound?
Answer: The TGI was 3620 nM.

Question: What about the TGI [28] of the same compound?
Answer: The TGI was 3220 nM.

Question: What about the TGI [29] of the same compound?
Answer: The TGI was 3280 nM.

Question: And the TGI [30]?
Answer: Its TGI is 4430 nM.

Question: What about the TGI [31] of the same compound?
Answer: Its TGI is 3090 nM.

Question: And the GI50 [32]?
Answer: Its GI50 is 631 nM.

Question: And the TGI [32]?
Answer: Its TGI is 1890 nM.

Question: And the TGI [33]?
Answer: Its TGI is 3410 nM.

Question: And the TGI [34]?
Answer: Its TGI is 4390 nM.

Question: And the TGI [35]?
Answer: Its TGI is 10200 nM.

Question: And the TGI [36]?
Answer: The TGI was 4440 nM.

Question: What about the TGI [37] of the same compound?
Answer: Its TGI is 3600 nM.

Question: What about the TGI [38] of the same compound?
Answer: Its TGI is 3640 nM.

Question: And the TGI [39]?
Answer: The TGI was 2900 nM.

Question: What about the GI50 [40] of the same compound?
Answer: The GI50 was 186 nM.

Question: What about the TGI [40] of the same compound?
Answer: The TGI was 412 nM.

Question: What about the TGI [41] of the same compound?
Answer: The TGI was 2040 nM.

Question: What about the GI50 [42] of the same compound?
Answer: Its GI50 is 878 nM.

Question: What about the TGI [42] of the same compound?
Answer: The TGI was 2290 nM.

Question: And the TGI [43]?
Answer: The TGI was 3260 nM.

Question: And the TGI [44]?
Answer: Its TGI is 2370 nM.

Question: What about the GI50 [45] of the same compound?
Answer: Its GI50 is 185 nM.

Question: And the TGI [45]?
Answer: The TGI was 340 nM.

Question: And the TGI [46]?
Answer: Its TGI is 13800 nM.

Question: And the TGI [47]?
Answer: The TGI was 2500 nM.

Question: And the TGI [48]?
Answer: Its TGI is 4930 nM.

Question: And the GI50 [49]?
Answer: Its GI50 is 1090 nM.

Question: And the TGI [49]?
Answer: The TGI was 2510 nM.

Question: And the TGI [50]?
Answer: Its TGI is greater than 100000 nM.

Question: What about the GI50 [51] of the same compound?
Answer: The GI50 was 214 nM.

Question: What about the TGI [51] of the same compound?
Answer: Its TGI is 382 nM.

Question: What about the GI50 [52] of the same compound?
Answer: The GI50 was 2080 nM.

Question: What about the TGI [52] of the same compound?
Answer: Its TGI is 7590 nM.

Question: And the TGI [53]?
Answer: Its TGI is 3500 nM.

Question: And the GI50 [54]?
Answer: Its GI50 is 68.2 nM.

Question: What about the TGI [54] of the same compound?
Answer: Its TGI is 2150 nM.

Question: And the TGI [55]?
Answer: Its TGI is 5550 nM.
